Details of data set [1]: method as in Clark 1999. To be noted: atom selection N, O, S, P, H; ref Clark 1999; cited from earlier work.
Data set [2] in a line: BRlogD chromatographic lipophilicity (XBridge Shield RP18). It is filed as physicochemical. As to the method: (§1) Mobile phases consisted of an isocratic solution of 20 mM ammonium acetate at pH 7.0 and acetonitrile at various percentages (see specific method). Samples were dissolved in buffer/acetonitrile at concentrations ranging from 50 to 100 μg/mL. Chromatographic measurements were analyzed in duplicate. Then 10 μL of each solution (volume of injection) were injected at an isocratic 1 mL/min flow rate, analyzed at 30 °C (oven temperature). Each chromatographic descriptor required a specific HPLC method (see below).
The three compounds previously dissolved in ACN were injected into the X-Bridge column (mobile phase: 40% buffer, 60% ACN), and the retention times and dead time (t0, baseline disturbance) were recorded. Consequently, capacity factor log k′60 was calculated (log k′60 = [tR – t0]/t0). The corresponding BRlogD value was obtained using equation: BRlogD = 3.31 × log k′60 + 2.79.[12] The used standard is acetone, caffeine, ibuprophen, lidocaine, phenol and a mixture of uracile, acetophenone and toluene.

Data set [3] can be described thus: log kW^IAM chromatographic lipophilicity (IAM.PC.DD2 column). It is filed as physicochemical. To be noted: extrapolated to 100% buffer, pH 7.0. As to the method:
as §1
Dissolved samples were injected into column IAM.PC.DD2, and retention times were recorded at different mobile phase percentages (from 10 to 50% ACN). Capacity factor was calculated for each mobile phase condition using equation: k′ = [tR – t0]/t0) t0 being the retention time of a nonretained molecule (citric acid). The log kW^IAM value for each molecule was calculated by extrapolating the 100% buffer value (0% ACN) from the equation obtained with the five mobile phase conditions, previously mentioned. In addition, five standards (caffeine, carbamazepine, ketoprofen, theobromine, and toluene) were examined on a daily basis.[33]

Data set [4] in a line: log k′80 PLRP-S chromatographic lipophilicity. The class given is physicochemical. The note with it: 80% ACN. As to the method:
as §1
The retention times of the three samples were recorded at 80% ACN and capacity factors were calculated. Moreover, gold standards (acetone, caffeine, phenol, uracil–acetophenone--toluene mix and benzene) were daily checked.[15]

Data set [5] can be described thus: log Ptol, miniaturized shake-flask toluene/water. The class given is physicochemical. As to the method: log Ptol was determined with an automated, miniaturized shake flask method in a 96-well format according to the protocol described by Shalaeva and co-workers.[24]
Data set [6] can be described thus: Δlog kW^IAM polarity descriptor. It is filed as physicochemical. The note with it: experimental log kW^IAM minus clog kW^IAM from BRlogD. An excerpt:
Δlog kW^IAM was earlier defined by Grumetto et al.[48] as (Δlog kW^IAM = experimental log kW^IAM – clog kW^IAM (log kW^IAM for neutral and nonpolar compounds with PSA = 0). Moreover, clog kW^IAM was correlated to log P (octanol/water)[48] and more recently to BRlogD[12] with equation (clog kW^IAM = BRlogD* 0.92–1.03). Therefore, the measurement of BRlogD and log kW^IAM for the three samples allowed to calculate polarity descriptor Δlog kW^IAM.

The nature of data set [7]: EPSA supercritical fluid chromatography polarity. It is filed as physicochemical. To be noted: SFC, Chirex 3014. As to the method:
EPSA was determined following the SFC protocol by Goetz and co-workers.[17] Briefly, a polar stationary phase (Chirex 3014) and a nonpolar mobile phase (supercritical CO2 with the addition of 20 mM ammonium formate in methanol as a modifier) were used to enable separation of compounds based on their polarity. The modifier was varied in 11 min from 5% to 60% at 5%/min in a linear gradient, holding at 60% for 4.9 min and reverting to the original 5% in 0.1 min. The flow rate was 5 mL/min, with the outlet back pressure set to 100 bar instead of 140 bar of the original method. Samples were dissolved in DMSO, the injection volume was 5 μL. The column temperature was set to 40 °C.

Data set [8] can be described thus: Δlog Poct-tol IMHB propensity. The class given is physicochemical. The note with it: difference between log Poct and log Ptol. The source says:
Δlog Poct-tol([24]) (the difference between log Poct and log Ptol) is an indicator of the capacity of a compound to expose HDon groups, and thus it quantifies the molecular capacity to form dynamic IMHBs. […] Our data support that Saquinavir is the compound with the highest capacity to form IMHB, its Δlog Poct-tol being 0.79. Pomalidomide and CMP 98 show poorer propensity to mask HDon groups, although not negligible.

Data set [9] can be described thus: PLRP-S retention at 50-100% ACN (chameleonicity). It is filed as physicochemical. To be noted: mobile phases 50 to 100% ACN. The source says:
In a recent paper, we proposed to monitor the propensity of compounds to assume a chameleonic behavior through the analysis of the variation of the capacity factor in a nonpolar polymeric chromatographic system, named PLRP-S.[16] Here we applied the same approach and determined the retention of the three compounds in the PLRP-S system with various mobile phases (from 50 to 100% ACN). According to the reverse-phase (RP) nature of the system, the retention time (and thus log k′ PLRP-S) of lipophilic molecules is expected to decrease when increasing the amount of acetonitrile in the mobile phase. […] This experimental finding can be explained by a propensity of Saquinavir to change its conformation in a nonpolar environment, masking its polarity supporting the chameleonic properties of this compound.

The next data set can be described thus: Thermodynamic solubility. The class given is physicochemical. To be noted: for solubility: 25 °C, thermodynamic from solid, thermodynamic solubility, read-out: Solubility 25ºC log S (converted). As to the method:
Table S1: Thermodynamic solubility and permeability data of the three selected compounds.
Solubility 25 °C Permeability
Molecules log S (mol/l) (cm/s x 10 )

For data set [10] the following is noted: SI Table S1; cited from earlier work.
The test system of another data set is Caco-2. To be noted: cited from earlier work.
On the set-up of data set [11]: method as in PMID 29608068. The note with it: cited from earlier work.

The chromatographic logD is lipophilicity estimated from chromatographic retention. A low value points to a more hydrophilic compound. The solubility is how much of the substance goes into solution per volume. Usually pKa stands for the pH at which an ionisable group is half protonated.

In brackets after ≈: the same amount, converted by molar mass.

In the case of `CC(=O)Nc1ccc(O)cc1` [Acetaminophen], the 3D PSA PSA Clark 1999 in data set [1] is 58.5 Å2.

As to `O=C1CN=C(c2ccccn2)c2cc(Br)ccc2N1` [Bromazepam], the 3D PSA PSA Clark 1999 in [1] is 57.4 Å2.

On to `Cc1ncsc1-c1ccc(CNC(=O)[C@@H]2C[C@H](O)CN2C(=O)[C@@H](NC(=O)COCCOCCOCCOCCOCCOCC(=O)N[C@H](C(=O)N2C[C@@H](O)C[C@H]2C(=O)NCc2ccc(-c3scnc3C)cc2)C(C)(C)C)C(C)(C)C)cc1` [CMP 98], for which the chromatographic logD in data set [2] (XBridge Shield RP18 HPLC column, 60% ACN, ammonium acetate pH 7.0) came to 1.38. In addition, in data set [3], the “log kW^IAM” value is recorded as 2.34. Moreover, in data set [4], the “log k´80 PLRP-S” value is reported as -0.84. Besides, the “log Ptol (SF)” value in data set [5] is given as -0.24. The “Δlog kW^IAM” value in data set [6] is listed as 2.1. Further, the EPSA in data set [7] was found to be 104 A^2. For the same compound, the “Δlog P (Δlog Poct-tol)” value in data set [8] is listed as 1.62. Moreover, in data set [9], the “log k′ PLRP-S behaviour with increasing acetonitrile (chameleonicity index)” value is given as “some deviation from linearity”. Also, in the data set “Thermodynamic solubility”, the solubility is 331 µM (≈ 391 µg/mL). For the same compound, the “water solubility” value in the data set “Thermodynamic solubility” (SI Table S1) was “water-soluble”. Also, the “PAMPA permeability” value in data set [10] is recorded as “not PAMPA permeable”.

Consider `Cn1c(=O)c2c(ncn2C)n(C)c1=O` [Caffeine], for which, in data set [1], the 3D PSA PSA Clark 1999 is 59.2 Å2.

For `O=c1ccc2ccccc2o1` [Coumarin], the 3D PSA PSA Clark 1999 in [1] was 33.9 Å2.

With `Nc1nnc(-c2cccc(Cl)c2Cl)c(N)n1` [Lamotrigine], the 3D PSA PSA Clark 1999 in data set [1] is 96.4 Å2.

For `CN1C(=O)C(O)N=C(c2ccccc2Cl)c2cc(Cl)ccc21` (stereo not drawn) [Lormetazepam], the 3D PSA PSA Clark 1999 in [1] is 55.9 Å2.

In the case of `Cc1cc(=O)n(-c2ccccc2)n1C` [Phenazone], in [1], the 3D PSA PSA Clark 1999 is 28 Å2.

Compound `Nc1cccc2c1C(=O)N(C1CCC(=O)NC1=O)C2=O` (stereo not drawn) [Pomalidomide] registered a BRlogD in data set [2] (60% ACN, ammonium acetate pH 7.0) of 1.41. In data set [3], the “log kW^IAM” value was 0.91. Besides, the “log k´80 PLRP-S” value in data set [4] is -0.65. For the same compound, the “log Ptol (SF)” value in [5] is -0.22. In data set [6], the “Δlog kW^IAM” value is recorded as 0.64. This compound returned an EPSA in data set [7] of 82 A^2. The “Δlog P (Δlog Poct-tol)” value in [8] turned out to be 1.63. In data set [9], the “log k′ PLRP-S behaviour with increasing acetonitrile (chameleonicity index)” value is reported as “about in line with expectations”. Besides, in “Thermodynamic solubility”, the solubility was 28.2 µM (≈ 7.7 µg/mL). Further, the “Permeability (Caco-2)” value in the data set on Caco-2 (Caco-2, ref 13 (SI)) is 24.9 cm/s x 10^-6.

On to `CC(=O)[C@H]1CC[C@H]2[C@@H]3CCC4=CC(=O)CC[C@]4(C)[C@H]3CC[C@]12C` [Progesterone], for which the 3D PSA PSA Clark 1999 in data set [1] is 41.2 Å2.

For the compound `O=C(O)c1ccccc1O` [Salicylic Acid], in data set [1], the 3D PSA PSA Clark 1999 is 62.5 Å2.

`CC(C)(C)NC(=O)[C@@H]1C[C@@H]2CCCC[C@@H]2CN1C[C@@H](O)[C@H](Cc1ccccc1)NC(=O)[C@H](CC(N)=O)NC(=O)c1ccc2ccccc2n1` [Saquinavir]: in [2] (pH 7), the BRlogD stood at 2.85. The “log kW^IAM” value in data set [3] was 3.44. Moreover, the “log k´80 PLRP-S” value in [4] was -0.1. Moreover, the “log Ptol (SF)” value in data set [5] was 2.06. Further, the “Δlog kW^IAM” value in data set [6] came out at 1.85. Also, in data set [7], the EPSA was found to be 94 A^2. Also, the “Δlog P (Δlog Poct-tol)” value in data set [8] came to 0.79. For the same compound, the “log k′ PLRP-S behaviour with increasing acetonitrile (chameleonicity index)” value in [9] was “significantly higher than expected”. For the same compound, in the data set on Caco-2 (Caco-2 with efflux inhibition, ref 11 (SI)), the “Permeability (Caco-2 with efflux inhibiton)” value was 5.0 cm/s x 10^-6. For the same compound, the “Permeability mechanism” value in the data set with Caco-2 (ref 11 (SI)) is recorded as “Mainly active transport”. In data set [11], the pKa was 7.1.

As to `Cn1c(=O)c2[nH]cnc2n(C)c1=O` [Theophylline], the 3D PSA PSA Clark 1999 in data set [1] was 74.7 Å2.

The values are drawn from publication PMC9511483, “Refinement of Computational Access to Molecular Physicochemical Properties: From Ro5 to bRo5” (Journal of Medicinal Chemistry, 2022).
